{"source": "patent US20200370088A1", "about": "“KIT AND METHOD FOR ANTIBIOTICS SUSCEPTIBILITY TESTING WITH THE AGAR DILUTION METHOD” ([…].R.L., priority 2019, published 2020)", "tested_on": "test bacteria", "experiment": "Agar dilution MIC test in 12-well agarized panel (FIG. 2A-E)", "format": "cell-based", "conditions": "for MIC: agar dilution test", "description": "In alternative embodiments, the MIC in agar is determined by the steps of inoculating a suspension of the bacterium to be tested in a plurality of agarized wells with serial two-fold dilutions of antibiotic. The test bacteria are inoculated on the agarized wells. These inoculated wells are incubated at 35-37° C. overnight. The MIC is defined as the minimum antibiotic concentration that yielded complete inhibition of the bacteria on the wells. The steps are illustrated in FIG. 1 and FIGS. 2a-2e.\nIn alternative embodiments of methods as provided herein different bacterial strains such as Staphylococcus spp., Enterococcus spp., Enterobactariaceae and corresponding mixtures can be inoculated onto the surface of the agarized wells prepared according to Ref. (1) and containing various concentrations of antibiotic. The inoculated wells are incubated at about 35-37° C. for a fixed time, or in alternative embodiment for about 15-24 hours. Depending on the concentration of the antibiotic, bacterial growth results and is clearly visible on the wells. Generally, in the wells having the high concentration of antibiotic, the antibiotic inhibits the bacterial growth while on the wells having low antibiotic concentrations distinctly visible and typical growth is observed. The lowest antibiotic concentration which serves to inhibit the growth of the bacteria on the wells is defined as the minimal inhibitory concentration (MIC).\nWith particular reference to the FIGS. 2a-2e, the therein illustrated kit is a 12-well panel containing the antibiotic incorporated into an agar medium in different concentrations, i.e. 11 two-fold dilutions (0.25-256 μg/ml). The procedure used to carry out the test is the agar dilution (AD)method for the antimicrobial susceptibility testing of the antibiotic and is according to the one recommended by CLSI and EUCAST (Ref. 1-4) standards but in a simpler and less time-consuming way and with highly reproducible results.\nAll wells are inoculated with a standardized microbial suspension.\nAfter incubation in thermostat (as described in the following paragraph, for example at 36±2° C. for 16-20 hours in ambient air) the result is read and interpreted.\nTest Procedure • Take a panel from its envelope and leave it at room temperature for 10 min. • Prepare a suspension of the test organism using either the direct colony suspension or growth method. • Standardize the suspension to the density of a McFarland 0.5 standard. • Optimally within 15 min of preparation, dilute the adjusted suspension 1:10 in saline. • Dispense 2 μl of the inoculum solution over the agar surface (*) into each well (the final inoculums concentration should be approximately 10^4 CFU per spot). […]\nAt the end of the incubation period observe the growth in the wells and establish the MIC, i.e. the lowest concentration of antibiotic that inhibits visible growth.\nDisregard single colonies or faint haze caused by the inoculum", "data": [{"smiles": "C[C@@H]1O[C@@H]1P(=O)(O)O", "note": "[fosfomycin]", "values": [{"measurement": "MIC", "setting": "48 h, FIG. 2d", "result": 64, "unit": "µg/mL"}, {"measurement": "growth observed in well", "setting": "FIG. 2E, at 1 μg/ml", "result": "faint haze"}, {"measurement": "MIC", "setting": "FIG. 2a", "result": 0.5, "unit": "µg/mL"}, {"measurement": "MIC", "setting": "FIG. 2b", "result": 16, "unit": "µg/mL"}, {"measurement": "MIC", "setting": "FIG. 2c", "result": 2, "unit": "µg/mL"}]}]}
